Measured values published in publication PMC6220303 (EMBO Molecular Medicine, 2018).
Values joined by “and” are separate entries in the source; they are usually repeats but may differ in a detail not shown here. Equal values may be shown once. “Also recorded” adds a separate entry of the source. Read-outs that look alike come from different tables or passages of the source.

What was measured:
[1] = tested on: CSF Aβ; test: Human CSF Aβ after 2-week once-daily dosing; assay type: in vivo; conditions: 2 weeks, 24 h after last dose, mean ± SEM
Protocol: (A) Changes in Aβ40 relative to baseline values. (B) Changes in sAPPβ relative to baseline values.
CSF was sampled by single lumbar punctures at baseline and 24 h after the last dose, and the change in Aβ concentrations from baseline to end of treatment was determined.
Human CSF was collected from an indwelling spinal catheter inserted into the lower spinal canal (in the single ascending dose (SAD) PD first in human (FIH) study) or by a lumbar puncture (in the multiple ascending dose (MAD) PD Phase I study and Phase IIa study), and by trained personnel at the site and as per their standard operating procedure (SOP). CSF Aβ38, Aβ40, Aβ42, sAPPα, and sAPPβ were quantified in human CSF with 0.2% (v/v) Tween®‐20 using validated sandwich‐based multiplexed electrochemiluminescence methods (MesoScale Discovery, […], MD, USA).

[2] = tested on: APP23 mice; conditions: APP23, mouse, in vivo, 3 months
[3] = tested on: CSF Aβ40; test: Human CSF Aβ40, Phase IIa study of 3-month duration; assay type: in vivo; conditions: for reduction in CSF Aβ40 concentrations: 3 months, mean ± SEM
Description: All study participants underwent CSF sampling at baseline and at the end of treatment; in addition, we collected CSF at a number of intermediate time points (n = 2–7/time point).
CSF Aβ38, Aβ40, Aβ42, sAPPα, and sAPPβ were quantified in human CSF with 0.2% (v/v) Tween®‐20 using validated sandwich‐based multiplexed electrochemiluminescence methods (MesoScale Discovery, […], MD, USA). […]
Secondary • To assess the change from baseline of CSF Aβ concentrations (Aβ1-
Objectives 38; Aβ1-40; Aβ1-42) in healthy elderly subjects over 13 weeks

[4] = tested on: C57/BL6 mice; test: Hair depigmentation study, 8 weeks dosing; assay type: in vivo, mouse
Protocol: Compounds were either mixed in feed or given as a suspension orally. […] Vehicle or compounds were given orally in a volume of 10 ml/kg once daily (mornings) for 8 weeks. Vehicle: 0.1% Tween‐80 in 0.5% methylcellulose in water. […] The vehicle group was treated with food pellets containing no compound. The β1 antibody was dosed 0.5 mg/kg body weight, once weekly intraperitoneally, diluted in 90 nM NaCl, 50 nM Tris pH 7.1.

[5] = tested on: Aβ40 and Aβ42 in dog CSF; test: Aβ40 and Aβ42 in dog CSF after single oral dose, PK/PD modeling; assay type: in vivo; conditions: Canis lupus familiaris
Protocol: Therefore, we measured Aβ40 in rat brain tissue 4 h after oral administration over a range of doses. […] In addition, the effect‐over‐time curves for brain and CSF almost completely superimposed, showing that Aβ pharmacodynamics in CSF mirrors very well that in brain tissue.
Electrochemiluminescence immunoassays (Mesoscale Diagnostics, Rockville, MD, USA) were used to determine Aβ38, Aβ40, Aβ42, sAPPα, and sAPPβ. For studies in normal mice and rats, the endogenous Aβ40 was extracted from the brain homogenate with 1% Triton X‐100, and the 4G8‐based assay kit was used for quantification according to the manufacturer's instructions. CSF was collected from the cisterna magna and also analyzed using the 4G8 kit. For studies in dogs, CSF was collected via a ventricular port, and the 6E10‐based Mesoscale Diagnostics kit for Aβ was used. For studies in APP23 mice, Aβ40 and Aβ42 were determined after extraction with 70% formic acid and subsequent neutralization.

[6] = Animal toxicology studies, any species; assay type: in vivo
Protocol: (§1) In vivo animal toxicity studies were performed according to ICH guidance for industry M3(R2) and conformed to the Institutional Animal Care and Use Guidelines for the contract laboratory and sponsor. […] Recovery was assessed after a 12‐week treatment‐free period. Beagle dogs from Marshall BKU UK, 11 months of age, were given 0 (vehicle), 5, 15, or 30 mg/kg/day for 39 weeks. Vehicle consisted of 0.5% (w/v) methylcellulose (1,500 cPS) in 0.1% (v/v) polysorbate 80 (Tween®‐80) in reverse osmosis water. At necropsy, tissues were immersion fixed in 10% neutral‐buffered formalin or modified Davidson's solution and then processed by routine methods to paraffin block and hematoxylin–eosin (H&E)‐stained histologic slides.

[7] = logD determination; assay type: physicochemical; conditions: partition coefficient octanol/buffer pH 6.8
Protocol: (§2) Cellular Aβ release assays were done in CHO cells stably transfected with human wild‐type and human APP were done as described (Neumann et al, 2015). Determinations of logD, pKa, and binding to brain homogenates were done internally at Novartis, Basel. Plasma protein binding was determined by equilibrium dialysis using diluted plasma from the corresponding species. MDR‐1‐MDCK cells were obtained from Prof. A. Berns, Netherlands Cancer Institute, Amsterdam NL, and bi‐directional transport measurements were done as described (Rueeger et al, 2011). Receptor binding assays were done against an internal receptor panel and externally at Ricerca Biosciences, Peitou, Taiwan. In vitro binding and cellular patch clamp assays for hERG were done at Preclinical Safety, Novartis, Basel.

[8] = tested on: dogs; test: Long-term toxicology studies in dogs; assay type: in vivo, dog
Protocol: In long‐term toxicology studies, dose‐limiting non‐specific central nervous system (CNS) effects (including impaired mobility and tremor) occurred in dogs at ≥ 30 mg/kg/day and in male rats (adverse effects only observed at doses ≥ 500 mg/kg/day). […] After CNP520 withdrawal, all changes either trended toward being, or were, fully reversible. The organs that were affected by drug toxicity in these animal studies either were not relevant to the clinical target population or the toxicities occurred at a dose substantially higher than the efficacious clinical dose.
as §1

[9] = pKa determination; assay type: physicochemical; conditions: cyclic amidine
Protocol: as §2

In the case of C[C@@]1(c2nc(NC(=O)c3ncc(C(F)(F)F)cc3Cl)ccc2F)CO[C@@](C)(C(F)(F)F)C(N)=N1 [CNP520], the “Aβ reduction in CSF from baseline to end of treatment” value ([1]; 10 mg daily dose) is reported as 59.8 ± 9.88%, the “Aβ reduction in CSF from baseline to end of treatment” value ([1]; 300 mg daily dose) is reported as 93.9 ± 2.09% and the “Hemorrhage (H & E staining) % affected” value [2] is reported as 7%. For the same molecule, the “Hemorrhage (H & E staining) Grade 1, number of animals affected” value [2] was 1, the “Hemorrhage (H & E staining) Grade 2, number of animals affected” value [2] was 0 and the “Hemosiderin (Perl’s staining) % affected” value [2] was 47%. The “Hemosiderin (Perl’s staining) Grade 1, number of animals affected” value [2] was 7, the “Hemosiderin (Perl’s staining) Grade 2, number of animals affected” value [2] was 0 and the “reduction in CSF Aβ40 concentrations” value ([3]; 2-mg daily dose) was 22.6 ± 2.1%. The “reduction in CSF Aβ40 concentrations” value ([3]; 85-mg daily dose) was 90.7 ± 0.37%, the “ED50(free)” value ([3]; corrected for plasma protein binding, human plasma) was 3.3 nM and the “ED50: total plasma CNP520 concentration at fifty percent reduction of CSF Aβ40” value ([3]; human plasma, Phase IIa) was 37.5 ± 2.9 ng/ml and 73.5 ± 5.8 nM. For the same molecule, the “changes in other pigmented organs (hair follicle, choroid, retina pigmented epithelium) by histopathology” value ([4]; C57/BL6 mice, 8 weeks) was “Neither did we observe any changes in other pigmented organs”, the “Aβ40 reduction in the brain” value ([4]; at doses with no change in hair color) was “more than 90%” and the “hair depigmentation / change in hair color” value ([4]; male C57/BL6 mice, 8 weeks oral once daily) was “No change in hair color”. The IC50 ([5]; read-out: IC50 in vivo (free ED50), unbound CNP520 in dog blood, PK/PD modeling estimate) was 3.3 ± 0.03 nM, the IC50 ([5]; read-out: IC50 in vivo, total CNP520 in dog blood, PK/PD modeling estimate) was 103 ± 12.3 nM and the “morphological changes in CNS, peripheral nervous system, liver, endocrine pancreas, retina, skin” value ([6]; any species) was “No morphological changes were identified”. The “depigmentation in long-term animal toxicology studies” value ([6]; including 9 months dosing in dogs) was “no signs of depigmentation; also recorded: did not result in hair depigmentation”, the retinal degeneration ([6]; long-term toxicological studies in rats and dogs) was “no retinal degeneration” and the logD [7] was 3.5. For the same molecule, the “No Adverse Effect Level” value ([8]; dog, authors' response in review file) was 30 mg/kg/day, the “dose with dose-limiting non-specific CNS effects (impaired mobility, tremor)” value ([8]; dogs, long-term toxicology) was at least 30 mg/kg/day and the pKa [9] was 7.2.
